Data: patent US20190381025A1, “SOLID DISPERSIONS OF (R)-N-((4-METHOXY-6-METHYL-2-OXO-1,2-DIHYDROPYRIDIN-3-YL)METHYL)-2-METHYL-1-(1-(1-(2,2,2-TRIFLUOROETHYL)PIPERIDIN-4-YL)ETHYL)-1H-INDOLE-3-CARBOXAMIDE” (Constellation Pharmaceuticals, Inc., priority 2017, published 2019)

Assay: pharmacokinetic studies (PK) of solid dispersions in fasted, famotidine or pentagastrin pre-treated dogs
Format: in vivo
Conditions: above pH 2.5; dogs following pre-treatment with famotidine (FIG. 1)
Procedure: Several rounds of pharmacokinetic studies (PK) were performed and included four diverse solid dispersions comprising 50 wt % amorphous (R)—N-((4-methoxy-6-methyl-2-oxo-1,2-dihydropyridin-3-yl)methyl)-2-methyl-1-(1-(1-(2,2,2-trifluoroethyl)piperidin-4-yl)ethyl)-1H-indole-3-carboxamide and PVP, PVP-PA with NaHCO3, HPMC, and HPMC-AS polymer systems, in fasted, famotidine treated dogs at a 30 mg/kg dose.
All solid dispersions were prepared as aqueous suspensions at 60 mg/mL in the toxicology vehicle, 0.5% MC/0.1% Tween 80 and does with 30 minutes of preparation. All dogs tested were carried over from study to study.

absorption: reduced absorption
Structure (SMILES): COc1cc(C)[nH]c(=O)c1CNC(=O)c1c(C)n([C@H](C)C2CCN(CC(F)(F)F)CC2)c2ccccc12 [(R)—N-((4-methoxy-6-methyl-2-oxo-1,2-dihydropyridin-3-yl)methyl)-2-methyl-1-(1-(1-(2,2,2-trifluoroethyl)piperidin-4-yl)ethyl)-1H-indole-3-carboxamide]
